According to publication PMC10455239, “Antimicrobial, Cytotoxic, and α-Glucosidase Inhibitory Activities of Ethanol Extract and Chemical Constituents Isolated from Homotrigona apicalis Propolis—In Vitro and Molecular Docking Studies” (Life, 2023):
In brackets after ≈: the same amount, converted by molar mass. Read-outs that look alike come from different tables or passages of the source.

Legend:
Bacillus cereus = test: Antimicrobial activity, broth microdilution; format: cell-based; details: read-out: IC50 B. cereus
Experimental: (§1) The antimicrobial activity assay was performed using the broth microdilution method. Dimethyl sulfoxide (DMSO) was used for the preparation of compound solutions at concentrations of 256 μg/mL, 64 μg/mL, 16 μg/mL, 4 μg/mL, and 1 μg/mL. Three strains of Gram-positive bacteria (Staphylococcus aureus, Bacillus cereus, and Lactobacillus fermentum); three strains of Gram-negative bacteria (Salmonella enterica, Escherichia coli, and Pseudomonas aeruginosa), and fungus Candida albicans (obtained from the American Type Culture Collection (ATCC)) were used for the test. Ampicillin, Cefotaxim, and Nystatin were used as positive controls for the Gram (+) bacterial and Gram (−) bacterial strains and C. albicans, respectively. The activity of the isolated compounds was expressed as an IC50 value (half-maximal inhibitory concentration). The IC50 values were calculated using the program […].

Lactobacillus fermentum = test: Antimicrobial activity, broth microdilution; format: cell-based; details: read-out: IC50 L. fermentum
Experimental: as §1

Staphylococcus aureus = test: Antimicrobial activity, broth microdilution; format: cell-based; details: read-out: IC50 S. aureus
Experimental: as §1

Escherichia coli = test: Antimicrobial activity, broth microdilution; format: cell-based; details: for IC50: Escherichia coli, read-out: IC50 E. coli
Experimental: as §1

Pseudomonas aeruginosa = test: Antimicrobial activity, broth microdilution; format: cell-based; details: for IC50: Pseudomonas aeruginosa, read-out: IC50 P. aeruginosa
Experimental: as §1

Salmonella enterica = test: Antimicrobial activity, broth microdilution; format: cell-based; details: Gram (−) strain; for IC50: Salmonella enterica, read-out: IC50 S. enterica
Experimental: as §1

Candida albicans = test: Antimicrobial activity, broth microdilution; format: cell-based; details: for IC50: Candida albicans, read-out: IC50 C. albicans
Experimental: as §1

[1] = tested on: A-549 (human lung adenocarcinoma); test: Cytotoxicity assay (MTT); format: cell-based; details: read-out: IC50 A-549
Experimental: (§2) The cytotoxic assays were evaluated in triplicate against three cancer cell lines, namely KB (epidermal carcinoma), A-549 (human lung adenocarcinoma), and HepG-2 (human hepatoma) (ATCC), with a modification of the previously published method. The cells were cultured in Dulbecco’s D-MEM medium (Gibco, Life Technologies Corporation, Grand Island, NY, USA), supplemented with 10% fetal calf serum (Sigma-Aldrich, St. Loius, MO, USA), L-glutamine (2 mM) (Sigma-Aldrich, St. Loius, MO, USA), penicillin G (100 UI/mL), and streptomycin (100 μg/mL) (Sigma-Aldrich, St. Loius, MO, USA). The compound solutions were prepared in DMSO, and the cytotoxic assays were conducted in 96-well microtiter plates against the cancer cells (3 × 10^5 cells/mL concentration). After 48 h incubation at 37 °C in an air/CO2 (95:5) atmosphere, with or without isolated compounds, MTT reagent was added to each well (0.5 mg/mL). The cell growth was assessed by measuring the colorimetric of formazan at 570 nm using a microplate reader. […] Ellipticine was used as a positive reference.

HepG-2 (human hepatoma) = test: Cytotoxicity assay (MTT); format: cell-based; details: read-out: IC50 Hep-G2
Experimental: as §2

KB (epidermal carcinoma) = test: Cytotoxicity assay (MTT); format: cell-based; details: read-out: IC50 KB
Experimental: as §2

α-glucosidase = molecular target: T1, α-glucosidase (Saccharomyces cerevisiae, UniProt P53341); test: biochemical
T1 construct: purchased Sigma-Aldrich G0660
T1 sequence (P53341 whole entry): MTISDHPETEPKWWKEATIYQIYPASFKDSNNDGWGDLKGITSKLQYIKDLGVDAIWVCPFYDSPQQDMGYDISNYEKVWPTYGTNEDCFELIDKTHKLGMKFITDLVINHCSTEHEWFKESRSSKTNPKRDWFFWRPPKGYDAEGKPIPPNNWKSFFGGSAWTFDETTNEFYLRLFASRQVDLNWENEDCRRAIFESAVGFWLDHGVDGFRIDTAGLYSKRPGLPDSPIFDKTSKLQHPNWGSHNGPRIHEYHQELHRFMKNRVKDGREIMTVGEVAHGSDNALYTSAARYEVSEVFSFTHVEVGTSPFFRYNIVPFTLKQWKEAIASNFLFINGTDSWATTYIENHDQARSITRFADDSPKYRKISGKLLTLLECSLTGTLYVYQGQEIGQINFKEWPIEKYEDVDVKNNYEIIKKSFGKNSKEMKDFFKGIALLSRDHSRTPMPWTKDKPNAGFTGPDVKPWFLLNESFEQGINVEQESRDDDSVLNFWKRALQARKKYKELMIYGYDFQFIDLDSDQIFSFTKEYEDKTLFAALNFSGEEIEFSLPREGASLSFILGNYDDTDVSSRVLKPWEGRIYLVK
Experimental: An assay for the α-glucosidase inhibitory activity was carried out by a modification of the published method. Briefly, solutions of α-glucosidase (Saccharomyces cerevisiae, G0660, Sigma-Aldrich, St. Louis, MO, USA) and p-nitrophenyl α-D-glucopyranoside (Sigma-Aldrich, St. Louis, MO, USA) were prepared in a phosphate buffer (100 mM, pH 6.8, Sigma-Aldrich, St. Louis, MO, USA). […] The compound solution (2 μL) and 40 µL of enzyme solution (0.5 U/mL) in 120 µL phosphate buffer were mixed. After 5 min of preincubation, 20 µL of 10 mM p-nitrophenyl α-D-glucopyranoside prepared in phosphate buffer was added, and the reaction mixture was incubated for 30 min at 37 °C. The reaction was quenched by the addition of 80 µL of 0.2 M Na2CO3. The absorbance of the released p-nitrophenol was measured at 410 nm using a Biotek reader. The % inhibition was calculated using the following equation:Inhibition (%) = [1 − (Asample/Acontrol)] ∗ 100
The IC50 values of the isolated compounds were calculated using the program Table Curve.

[2] = tested on: Gram (+) bacterial strains; test: Antibacterial activity, range over strains; format: cell-based; details: range over strains and compounds
Experimental: as §1

[3] = tested on: KB, HepG-2, and A-549 cancer cell lines; test: Cytotoxicity assay (MTT), range over the three cell lines; format: cell-based; details: range over three cell lines and both xanthones
Experimental: as §2

[4] = Table S1, α-glucosidase, read-out: IC50 (Table S1) (converted)
[5] = p-nitrophenyl α-D-glucopyranoside, pH 6.8, 37 °C, read-out: IC50 α-Glucosidase Inhibitory Activity
[6] = IC50 (Table S1), Table S1, α-glucosidase
[7] = IC50 α-Glucosidase Inhibitory Activity, p-nitrophenyl α-D-glucopyranoside, pH 6.8, 37 °C

Structure (SMILES) | IC50 (Lactobacillus fermentum; Gram (+) strain) [µg/mL] | IC50 (Bacillus cereus) [µg/mL] | IC50 (Candida albicans) [µg/mL] | IC50 (Escherichia coli) [µg/mL] | IC50 (Pseudomonas aeruginosa) [µg/mL] | IC50 (Salmonella enterica) [µg/mL] | IC50 (Staphylococcus aureus) [µg/mL] | IC50 ([1]; A549, MTT, 48 h incubation) [µg/mL] | IC50 (HepG-2 (human hepatoma); HepG2, MTT, 48 h incubation) [µg/mL] | IC50 (KB (epidermal carcinoma); MTT, 48 h incubation) [µg/mL] | IC50 (α-glucosidase; [4]) [µM] | IC50 (α-glucosidase; [5]) [µM] | IC50 (Lactobacillus fermentum) [µg/mL] | other results
CC1(C)S[C@@H]2[C@H](NC(=O)[C@H](N)c3ccccc3)C(=O)N2[C@H]1C(=O)O [A, Ampicillin, reference compound] | 1.03 ± 0.07 (≈ 2.95 µM) |  |  |  |  |  |  |  |  |  |  |  |  | IC50 (Bacillus cereus; Gram (+) strain): 3.62 ± 0.15 µg/mL (≈ 10.4 µM); IC50 (Staphylococcus aureus; Gram (+) strain): 0.02 ± 0.005 µg/mL (≈ 0.0572 µM)
CO/N=C(\C(=O)N[C@@H]1C(=O)N2C(C(=O)O)=C(COC(C)=O)CS[C@H]12)c1csc(N)n1 [C, Cefotaxim, reference compound] |  |  |  |  |  |  |  |  |  |  |  |  |  | IC50 E. coli (Escherichia coli; Gram (−) strain): 0.07 ± 0.02 µg/mL (≈ 0.154 µM); IC50 P. aeruginosa (Pseudomonas aeruginosa; Gram (−) strain): 4.34 ± 0.15 µg/mL (≈ 9.53 µM); IC50 S. enterica (Salmonella enterica): 0.43 ± 0.05 µg/mL (≈ 0.944 µM)
C=C1CC[C@@H]2[C@H]([C@H]3[C@H]1CC[C@]3(C)O)C2(C)C [Compound 1, spathulenol] | 206 ± 5.23 (≈ 934 µM) | > 256 | > 256 | > 256 | > 256 | > 256 | > 256 | > 128 | > 128 | > 128 | > 1160 | > 1160 |  | 
CC1(C)[C@H]2[C@H]3[C@@H](CC[C@]3(C)O)[C@](C)(O)CC[C@H]21 [Compound 2, 1αH,5βH-aromandendrane-4β,10α-diol] |  | > 256 | > 256 | > 256 | > 256 | > 256 | > 256 | > 128 | > 128 | > 128 | > 1070 | > 1070 | > 256 | 
C=C1CC[C@@H](O)[C@]2(C)CC[C@@H](C(C)C)[C@H](O)[C@@H]12 [Compound 3, 1β,6α-dihydroxy-4(15)-eudesmene] |  | > 256 | > 256 | > 256 | > 256 | > 256 | > 256 | > 128 | > 128 | > 128 | > 1070 | > 1070 | > 256 | 
CC1(C)[C@H]2[C@H]3[C@H](CC[C@@]3(C)O)[C@@](C)(O)CC[C@H]21 [Compound 4, 1βH,5βH-aromandendrane-4α,10β-diol] |  | > 256 | > 256 | > 256 | > 256 | > 256 | > 256 | > 128 | > 128 | 89.1 ± 9.67 (≈ 374 µM) | > 1070 | > 1070 | > 256 | 
CC(=O)O[C@H]1CC[C@]2(C)[C@H]3CC=C4[C@@H]5CC(C)(C)CC[C@]5(C(=O)O)CC[C@@]4(C)[C@]3(C)CC[C@H]2C1(C)C [Compound 5, acetyl oleanolic acid] |  | > 256 | > 256 | > 256 | > 256 | > 256 | > 256 |  |  |  |  |  | 49.9 ± 1.06 (≈ 100 µM) | IC50 ([1]; A549, 48 h): > 128 µg/mL; IC50 (HepG-2 (human hepatoma); HepG2, 48 h): > 128 µg/mL; IC50 (KB (epidermal carcinoma); 48 h): > 128 µg/mL; IC50 (α-glucosidase; [6]): 16.9 µM; IC50 (α-glucosidase; [7]): 16.9 µM
CC(C)=CCC[C@H](C(=O)O)[C@@H]1CC[C@]2(C)C3=C(CC[C@@]12C)[C@@]1(C)CC[C@@H](O)C(C)(C)[C@@H]1CC3 [Compound 6, 3α-hydroxytirucalla-8,24-dien-21-oic acid] |  | 141 ± 4.14 (≈ 308 µM) | > 256 | > 256 | > 256 | > 256 | > 256 |  |  |  |  |  | 62.2 ± 1.24 (≈ 136 µM) | IC50 ([1]; A549, 48 h): 78.6 ± 7.69 µg/mL (≈ 172 µM); IC50 (HepG-2 (human hepatoma); HepG2, 48 h): 77.7 ± 8.09 µg/mL (≈ 170 µM); IC50 (KB (epidermal carcinoma); 48 h): 49.3 ± 5.21 µg/mL (≈ 108 µM); IC50 (α-glucosidase; [6]): > 561 µM; IC50 (α-glucosidase; [7]): > 561 µM
C[C@H]1[C@H](C)CC[C@]2(C(=O)O)CC[C@]3(C)C(=CC[C@@H]4[C@@]5(C)CC[C@H](O)C(C)(C)[C@@H]5CC[C@]43C)[C@H]12 [Compound 7, ursolic acid] | 10.6 ± 0.7 (≈ 23.2 µM) |  |  |  |  | > 256 |  | > 128 | > 128 | > 128 |  |  |  | IC50 (Bacillus cereus; Gram (+) strain): 10.2 ± 0.67 µg/mL (≈ 22.3 µM); IC50 (Candida albicans; Fungus): > 256 µg/mL; IC50 (Escherichia coli; Gram (−) strain): > 256 µg/mL; IC50 (Pseudomonas aeruginosa; Gram (−) strain): > 256 µg/mL; IC50 (Staphylococcus aureus; Gram (+) strain): 7.1 ± 0.25 µg/mL (≈ 15.5 µM); IC50 [2]: 0.56 to 17.3 µg/mL (≈ 1.23 to 37.9 µM)
CC(C)=CCC/C(C)=C/Cc1c(O)c(CC=C(C)C)c(O)c2c(=O)c3cc(O)ccc3oc12 [Compound 8, cochinchinone A] | 8.67 ± 0.38 (≈ 19.3 µM) |  |  |  |  | > 256 |  | 20.3 ± 1.34 (≈ 45.3 µM) | 17.4 ± 1.03 (≈ 38.7 µM) | 29.3 ± 2.07 (≈ 65.3 µM) | 20.2 |  |  | IC50 (Bacillus cereus; Gram (+) strain): 7.99 ± 0.33 µg/mL (≈ 17.8 µM); IC50 (Candida albicans; Fungus): 65.3 ± 3.54 µg/mL (≈ 146 µM); IC50 (Escherichia coli; Gram (−) strain): > 256 µg/mL; IC50 (Pseudomonas aeruginosa; Gram (−) strain): 35.4 ± 2.03 µg/mL (≈ 79 µM); IC50 (Staphylococcus aureus; Gram (+) strain): 17.3 ± 0.87 µg/mL (≈ 38.6 µM); IC50 [3]: 7.55 to 29.3 µg/mL (≈ 16.8 to 65.3 µM); IC50 [2]: 0.56 to 17.3 µg/mL (≈ 1.25 to 38.6 µM)
Cc1c2ccncc2c(C)c2c1[nH]c1ccccc12 [Ellipticine, reference compound] |  |  |  |  |  |  |  | 0.34 ± 0.02 (≈ 1.38 µM) | 0.5 ± 0.03 (≈ 2.03 µM) | 0.48 ± 0.03 (≈ 1.95 µM) |  |  |  | 
C[C@@H]1[C@H](O)[C@@H](C)/C=C/C=C/CC/C=C/C=C/C=C/C=C/C(O[C@H]2O[C@H](C)[C@@H](O)[C@H](N)[C@@H]2O)CC2O[C@](O)(CC(O)C(O)CCC(O)CC(O)CC(O)CC(=O)O[C@H]1C)CC(O)C2C(=O)O (stereo partly shown) [N, Nystatin, reference compound] |  |  |  |  |  |  |  |  |  |  |  |  |  | IC50 C. albicans (Candida albicans; Fungus): 1.32 ± 0.05 µg/mL (≈ 1.43 µM)
